Laboratory results: US20240327334A1, “Covalent Inhibitors As Antiviral Agents” (Enanta Pharmaceuticals, Inc., priority 2022, published 2024)

Assays:
[1] = target: SARS-CoV-2 Papain-like (PLpro) protease (Severe acute respiratory syndrome coronavirus 2, UniProt P0DTD1); assay: SARS-CoV-2 Papain-like (PLpro) protease biochemical enzyme inhibition assay (ubiquitin-fluorophore substrate, Ub-R110); conditions: Ub-R110 substrate; run in duplicate; read-out: PLpro IC50
[2] = system: SARS-CoV-2 replicon; assay: microbe, parasite or virus in culture; format: cell-based; conditions: Severe acute respiratory syndrome coronavirus 2, Huh-7

| SMILES | IC50 [1] | EC50 [2] |
| --- | --- | --- |
| O=C(NCC#Cc1nccs1)C(=O)NCc1ccccc1C(=O)NC1(c2cnc3ccccc3c2)CC1 [Example 393] | < 0.1 µM | 1 to 10 µM |
| O=C(NCC#Cc1nccs1)C(=O)NCc1ccccc1C(=O)NC1(c2cc3ccccc3cn2)CC1 [Example 394] | < 0.1 µM | < 1 µM |
| O=C(NCC#Cc1nccs1)C(=O)NCc1ccccc1C(=O)NC1(c2ccc3nc(C4CC4)ccc3c2)CC1 [Example 396] | < 0.1 µM | < 1 µM |
| Cn1cnc(C#CCNC(=O)C(=O)NCc2ccccc2C(=O)NC2(c3ccc4ccccc4c3)CC2)n1 [Example 398] | < 0.1 µM | < 1 µM |
| O=C(NCC#Cc1nccs1)C(=O)NCc1ccccc1C(=O)NC1(c2ccn3nccc3c2)CC1 [Example 399] | < 0.1 µM | < 1 µM |
| C[C@@H](C#Cc1nccs1)NC(=O)C(=O)NCc1ccccc1C(=O)NC1(c2ccnc3c2ccn3C2CC2)CC1 [Example 402] | < 0.1 µM | < 1 µM |
| CC(C)c1cccnc1C#CCNC(=O)C(=O)NCc1ccccc1C(=O)NC1(c2ccc3ccccc3c2)CC1 [Example 404] | < 0.1 µM | < 1 µM |
| N#CCNC(=O)C(=O)NCc1ccccc1C(=O)NC1(c2cn(-c3cnn(C4CC4)c3)c3ncccc23)CC1 [Example 409] | < 0.1 µM | 1 to 10 µM |
| COc1cc(C2(NC(=O)c3ccccc3CNC(=O)C(=O)NCC#N)CC2)c2cccnc2c1 [Example 411] | < 0.1 µM | 1 to 10 µM |
| N#CCNC(=O)C(=O)NCc1ccccc1C(=O)NC1(c2cc(-c3cnn(C4CC4)c3)nc3c2ccn3C2CC2)CC1 [Example 413] | < 0.1 µM | < 1 µM |
| N#CCNC(=O)C(=O)NCc1ccccc1C(=O)NC1(c2cc(-c3cnn(C4CC4)c3)cc3ncccc23)CC1 [Example 415] | < 0.1 µM | 1 to 10 µM |
| C=C(C)c1ccc(-c2cc(C3(NC(=O)c4ccccc4CNC(=O)[C@H]4CCN(C#N)C4)CC3)c3ccccc3c2)s1 [Example 418] | < 0.1 µM | < 1 µM |
| N#CN1CC[C@H](C(=O)NCc2ccccc2C(=O)NC2(c3cc(-c4cnn(C5CC5)c4)cc4ncccc34)CC2)C1 [Example 419] | < 0.1 µM | < 1 µM |
| N#CCNC(=O)C(=O)NCc1ccccc1C(=O)NC1(c2ccnc3cc(Cl)ccc23)CC1 [Example 423] | < 0.1 µM | 1 to 10 µM |
| CC(C)(O)CCc1cc(C2(NC(=O)c3ccccc3CNC(=O)C(=O)NCC#N)CC2)c2ccccc2c1 [Example 424] | < 0.1 µM | 1 to 10 µM |
| N#CCNC(=O)C(=O)NCc1ccccc1C(=O)NC1(c2cc(-c3cnn[nH]3)cc3ccccc23)CC1 [Example 425] | < 0.1 µM | < 1 µM |
| COC(=O)Cn1cc(-c2cc(C3(NC(=O)c4ccccc4CNC(=O)C(=O)NCC#N)CC3)c3ccccc3c2)nn1 [Example 426] | < 0.1 µM | 1 to 10 µM |
| N#CCNC(=O)C(=O)NCc1ccccc1C(=O)NC1(c2cc(-c3cn(-c4ccccn4)nn3)cc3ccccc23)CC1 [Example 427] | < 0.1 µM | < 1 µM |
| CN1C(=O)c2cccc3c(C4(NC(=O)c5ccccc5CNC(=O)C(=O)NCC#N)CC4)ccc1c23 [Example 428] | < 0.1 µM | 1 to 10 µM |
| CC1(CNC(=O)C(=O)NCc2ccccc2C(=O)NC2(c3cccc4ccccc34)CC2)CN(C#N)C1 [Example 429] | < 0.1 µM | < 1 µM |
| N#CN1CC(CNC(=O)C(=O)NCc2ccccc2C(=O)NC2(c3cc(F)cc(-c4cnn(C5CC5)c4)c3)CC2)C1 [Example 431] | 0.1 to 1 µM | 1 to 10 µM |
| Cn1cc2cc(C3(NC(=O)c4ccccc4CNC(=O)C(=O)NCC4CN(C#N)C4)CC3)ccc2n1 [Example 432] | 0.1 to 1 µM | 1 to 10 µM |
| N#CCNC(=O)C(=O)NCc1ccccc1C(=O)NC1(c2ccc3c4c(cccc24)C(=O)N3)CC1 [Example 434] | < 0.1 µM | 1 to 10 µM |
| N#CN1CC(CNC(=O)C(=O)NCc2ccccc2C(=O)NC2(c3cccc4ccccc34)CC2)C1 [Example 435] | < 0.1 µM | < 1 µM |
| N#C/C=C/CNC(=O)C(=O)NCc1ccccc1C(=O)NC1(c2ccc3c4c(cccc24)CC3)CC1 [Example 438] | < 0.1 µM | < 1 µM |

| SMILES | IC50 [1] | EC50 [2] |
| --- | --- | --- |
| N#CCNC(=O)C(=O)NCc1ccccc1C(=O)NC1(c2ccc3c4c(cccc24)CC3)CC1 [Example 439] | < 0.1 µM | < 1 µM |
| O=C(NCC#Cc1nccs1)C(=O)NCc1ccccc1C(=O)NC1(c2ccc3c4c(cccc24)CC3)CC1 [Example 440] | < 0.1 µM | < 1 µM |
| C#CCNC(=O)C(=O)NCc1ccccc1C(=O)NC1(c2ccc3c4c(cccc24)CC3)CC1 [Example 441, N1-(2-((1-(1,2-dihydroacenaphthylen-5-yl)cyclopropyl)carbamoyl)benzyl)-N2-(prop-2-yn-1-yl)oxalamide] | < 0.1 µM | < 1 µM |
| O=C(NCC#Cc1nccs1)C(=O)NCc1ccccc1C(=O)NC1(c2cc(Cl)cc(-c3ccccc3F)c2)CC1 [Example 442] | < 0.1 µM | < 1 µM |
| O=C(NCC#Cc1nccs1)C(=O)NCc1ccccc1C(=O)NC1(c2cc(Cl)cc(-c3cc4ccccc4s3)c2)CC1 [Example 443] | < 0.1 µM | < 1 µM |
| C#CCNC(=O)C(=O)NCc1ccccc1C(=O)NC1(c2cc(Cl)cc(-c3ccccc3F)c2)CC1 [Example 444] | < 0.1 µM | < 1 µM |
| C#CCNC(=O)C(=O)NCc1ccccc1C(=O)NC1(c2cc(Cl)cc(-c3cc4ccccc4s3)c2)CC1 [Example 445] | < 0.1 µM | 1 to 10 µM |
| O=C(NCC#Cc1nccs1)C(=O)NCc1ccccc1C(=O)NC1(c2cc(Cl)cc(-c3cncs3)c2)CC1 [Example 446] | < 0.1 µM | < 1 µM |
| C#CCNC(=O)C(=O)NCc1ccccc1C(=O)NC1(c2cc(Cl)cc(-c3cncs3)c2)CC1 [Example 447] | < 0.1 µM | < 1 µM |
| N#CCNC(=O)C(=O)NCc1ccccc1C(=O)NC1(c2cc(Cl)cc(-c3cncs3)c2)CC1 [Example 448] | < 0.1 µM | 1 to 10 µM |
| O=C(NCC#Cc1nccs1)C(=O)NCc1ccccc1C(=O)NC1(c2cc(Cl)cc(-c3cnco3)c2)CC1 [Example 449] | < 0.1 µM | < 1 µM |
| C#CCNC(=O)C(=O)NCc1ccccc1C(=O)NC1(c2cc(Cl)cc(-c3cnco3)c2)CC1 [Example 450] | < 0.1 µM | < 1 µM |
| N#CCNC(=O)C(=O)NCc1ccccc1C(=O)NC1(c2cc(Cl)cc(-c3cnco3)c2)CC1 [Example 451] | < 0.1 µM | 1 to 10 µM |
| N#CCNC(=O)C(=O)NCc1ccccc1C(=O)NC1(c2cc(-c3cccs3)cc(-c3cccs3)c2)CC1 [Example 452] | < 0.1 µM | 1 to 10 µM |
| C#CCNC(=O)C(=O)NCc1ccccc1C(=O)NC1(c2cc(Cl)cc(-c3cnn(C4CC4)c3)c2)CC1 [Example 453] | < 0.1 µM | < 1 µM |
| N#CCNC(=O)C(=O)NCc1ccccc1C(=O)NC1(c2cc(Cl)cc(-c3cnn(C4CC4)c3)c2)CC1 [Example 454] | < 0.1 µM | 1 to 10 µM |
| N#CCNC(=O)C(=O)NCc1ccccc1C(=O)NC1(c2cc(Cl)cc(Br)c2)CC1 [Example 455] | 0.1 to 1 µM | > 10 µM |
| N#CCNC(=O)C(=O)NCc1ccccc1C(=O)NC1(c2cc(Cl)cc(-c3cnn(C(F)F)c3)c2)CC1 [Example 456] | < 0.1 µM | 1 to 10 µM |
| C[C@@H](NC(=O)c1ccccc1CNC(=O)C(=O)NCC#N)c1cc(-c2cnn(C3CC3)c2)cc(C(F)(F)F)c1 [Example 458] | < 0.1 µM | < 1 µM |
| COC(=O)/C=C/CNC(=O)C(=O)NCc1ccccc1C(=O)N[C@H](C)c1cc(-c2cnn(C3CC3)c2)cc(C(F)(F)F)c1 [Example 459] | < 0.1 µM | 1 to 10 µM |
| C[C@@H](NC(=O)c1ccccc1CNC(=O)C(=O)NCC#N)c1cc(-c2cccs2)cc(C(F)(F)F)c1 [Example 460] | < 0.1 µM | < 1 µM |
| COC(=O)/C=C/CNC(=O)C(=O)NCc1ccccc1C(=O)N[C@H](C)c1cc(-c2cccs2)cc(C(F)(F)F)c1 [Example 461] | < 0.1 µM | < 1 µM |
| COC(=O)/C=C/CNC(=O)C(=O)NCc1ccccc1C(=O)N[C@H](C)c1cc(-c2cnn(C(F)F)c2)cc(C(F)(F)F)c1 [Example 462] | < 0.1 µM | < 1 µM |
| C[C@@H](NC(=O)c1ccccc1CNC(=O)C(=O)NCC#N)c1cc(-c2cnn(C(F)F)c2)cc(C(F)(F)F)c1 [Example 463] | 0.1 to 1 µM | 1 to 10 µM |
| C[C@@H](NC(=O)c1ccccc1CNC(=O)C(=O)NCC#N)c1cc(-c2ccoc2)cc(C(F)(F)F)c1 [Example 464] | < 0.1 µM | 1 to 10 µM |
